The structures appear in SMILES notation.

Data set [1] deals with mouse fibroblast cell line L292. Kind of data set: Cytotoxicity measured as inhibition of the growth of mouse fibroblast cells. In kind it is cell-based. The following applies: for Lowest concentration of furanones which significantly inhibited the growth of mouse fibroblast cell line: 30% depression of growth deemed significant. The procedure:
(§1) All initial screening of six different furanones against growth of Staphylococcus aureus and Staphylococcus epidermidis was performed in a BioRad 3550 Microplate Reader. Ten percent (10%) of an overnight culture (10^8 cells/ml, resulting in final cell densities of 10^6 cells/ml) was added to the growth media. Nutrient Broth, containing furanones at the concentrations 10 and 1 μg/ml. The bacteria were incubated at 37° C. and growth was measured at […] for 9 hours. Cytotoxicity in mammalian systems was measured as inhibition of the growth of mouse fibroblast cells.

Data set [2] relates to Micrococcus luteus. Briefly: Screening against growth in NB, microplate reader, 24 hours. In kind it is cell-based. Particulars: 10 μg/ml, after 24 hr. The procedure: (§2) A screening of six different furanone compounds against growth of Staphylococcus aureus, Staphylococcus epidermidis. Streptococcus salivarius, Streptococcus pyogenes, Enterococcus faecalis and Micrococcus luteus was performed in) a BioRad 3550 Microplate Reader. Ten percent of overnight cultures were added to the growth media. NB containing furanones at the concentration 10 μg/ml. The bacteria were incubated at 37° C. and growth was measured at 595 nm for 24 hours.

Data set [3] concerns Streptococcus pyogenes. The description is as above. It counts as cell-based. The following applies: 10 μg/ml, after 24 hr. The procedure:
as §2

The subject of data set [4] is Staphylococcus aureus. The data set is described as above. It counts as cell-based. Particulars: 10 μg/ml, after 24 hr. The procedure:
as §2

In data set [5] the test system is Staphylococcus epidermidis. The description is as above. In kind it is cell-based. The following applies: 10 μg/ml, after 24 hr. The procedure: as §2
Data set [6] has as its system Enterococcus faecalis. The data set is described as above. It counts as cell-based. The following applies: 10 μg/ml, after 24 hr. The procedure:
as §2

Data set [7] deals with Streptococcus salivarius. The description is as above. It counts as cell-based. The following applies: 10 μg/ml, after 24 hr. The procedure:
as §2

Data set [8] relates to Staphylococcus aureus. Briefly: Initial screening against growth in Nutrient Broth, microplate reader, 9 hours. In kind it is cell-based. Particulars: for % growth compared to the control value: after 9 hr. The procedure:
as §1

Data set [9] relates to Staphylococcus epidermidis. The data set is described as above. It counts as cell-based. Particulars: for % growth compared to the control value: after 9 hr. The procedure: as §1
Data set [10] relates to Corynebacterium 003. Kind of data set: Effect on the growth of ocular bacteria in TSB. It counts as cell-based, Corynebacterium sp. Particulars: for Percentage growth compared to the control values: after 24 h, TSB. The procedure: (§3) Strains were cultured in 5 ml of TSB with or without SUs in 35° C. water bath with agitation (120 rpm). Growth rates were monitored by reading OD660nm at time intervals of 1, 2, 3, 4, 5, 7, and 24 hours.

Data set [11] deals with S. aureus 015. Briefly: Effect on the growth of ocular bacteria in TSB. In kind it is cell-based. The following applies: for Effect on growth curves: S. aureus strains, FIGS. 3 to 5. The procedure: as §3
Data set [12] relates to S. epidermidis 017. Kind of data set: Effect on the growth of ocular bacteria in TSB. Particulars: for Percentage growth compared to the control values: after 24 h, TSB; for Effect on growth curves: S. epidermidis strains, FIGS. 3 to 5. In kind it is cell-based. The procedure:
as §3

With `CCCCC1=C(Br)C(=CBr)OC1=O` [Compound 2], in data set [1], the “Lowest concentration of furanones which significantly inhibited the growth of mouse fibroblast cell line” value stood at 150 µg/mL. In addition, the “% growth compared to the control value” is recorded as 86% in [2]; 87% in data set [3]; 58% in [4]; 53% in [5]; 77% in [6]; 86% in data set [7]. For the same compound, the “% growth compared to the control value” in data set [8] (1 μg/ml) turned out to be 87.9%; in [8] (10 μg/ml), 57.9%; in data set [9] (1 μg/ml), 63.7%; in data set [9] (10 μg/ml), 53.2%. The Inhibition of growth result in data set [10] (100 μg/ml) is “approximately 86%”. The “Percentage growth compared to the control values” was determined as 14% in data set [10] (100 μg/ml) and 7% in data set [12] (100 μg/ml). Besides, the “Effect on growth curves” value in data set [11] (100 μg/ml) and in data set [12] (100 μg/ml) was “inhibited the growth” in each case.
As to `CCCC(OC(C)=O)C1=C(Br)C(=CBr)OC1=O` (stereo not drawn) [Compound 4, reference compound], the “Toxicity against mammalian cell lines” value in data set [1] is “quite toxic”. In addition, the “Lowest concentration of furanones which significantly inhibited the growth of mouse fibroblast cell line” value in [1] came out at 1 µg/mL. For the same compound, the “% growth compared to the control value” in data set [2] amounted to 75%; in data set [3] it was 0%; in data set [4] it was 34%; in [5], 53%; in data set [6], 75%; in data set [7], 85%. Besides, the “% growth compared to the control value” in [8] (1 μg/ml) is 84.2%; in [8] (10 μg/ml) it was 34.3%; in data set [9] (1 μg/ml), 77.1%; in data set [9] (10 μg/ml), 53.2%.
As to `O=C1C=C(Br)/C(=C/Br)O1` [Compound 30], the “Lowest concentration of furanones which significantly inhibited the growth of mouse fibroblast cell line” value in data set [1] was determined as 20 µg/mL. In addition, the “% growth compared to the control value” was found to be 86% in data set [2]; 50% in [3]; 0% in data set [4]; 62% in data set [5]; 54% in data set [6]; 73% in data set [7]. Also, the “% growth compared to the control value” in [8] (1 μg/ml) amounted to 56.6%; in [8] (10 μg/ml), 0%; in data set [9] (1 μg/ml), 72.1%; in data set [9] (10 μg/ml) it was 62.2%. Further, the “Inhibition of growth” value in data set [8] (10 ug/ml) and in data set [9] (10 ug/ml) was “completely inhibiting growth” each time. The “Effect on growth” value in [10] (10 μg/ml) is on record as “only slowed down the growth”. Moreover, the “Percentage growth compared to the control values” came to 90% in data set [10] (10 μg/ml); 97% in data set [11] (10 μg/ml, after 24 h, TSB); 91% in [12] (10 μg/ml). This compound showed a Growth reached in data set [10] (20 μg/ml (as printed in text), after 24 h incubation) of 90%. For the same compound, the “Effect on growth curves” value in data set [11] (10 μg/ml) and in data set [12] (10 μg/ml) was “only slowed down the growth” each time.
With `CCCC(F)C1=C(Br)/C(=C/Br)OC1=O` (stereo not drawn) [Compound 45], the “% growth compared to the control value” in data set [2] is 100%; in data set [3], 26%; in data set [4], 4%; in data set [5], 22%; in [6], 85%; in data set [7] it was 69%.

The values are drawn from patent US7026353B2, “Inhibition of Gram positive bacteria” (Unisearch Limited, A.C.N., priority 1998, dated 2006).
